Measurements taken from article PMC7545187, “Endocrine disruption of vitamin D activity by perfluoro-octanoic acid (PFOA)” (Scientific Reports, 2020).

Target: T1, Vitamin D receptor (VDR) (Homo sapiens, UniProt P11473)
T1 sequence (P11473 1-427): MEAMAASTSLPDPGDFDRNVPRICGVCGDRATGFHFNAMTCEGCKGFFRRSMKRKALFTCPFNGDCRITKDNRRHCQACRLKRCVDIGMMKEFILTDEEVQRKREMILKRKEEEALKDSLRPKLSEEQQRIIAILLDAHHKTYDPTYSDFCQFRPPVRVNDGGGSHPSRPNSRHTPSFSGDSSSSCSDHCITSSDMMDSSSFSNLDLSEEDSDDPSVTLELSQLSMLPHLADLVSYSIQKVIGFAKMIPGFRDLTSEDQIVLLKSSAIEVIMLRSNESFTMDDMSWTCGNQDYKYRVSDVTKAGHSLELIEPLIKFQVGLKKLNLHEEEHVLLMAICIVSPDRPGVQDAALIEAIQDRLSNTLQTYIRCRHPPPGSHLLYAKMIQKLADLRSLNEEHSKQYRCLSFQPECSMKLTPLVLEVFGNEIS
Experiment: SPR competition: PFOA ([…]) with […](OH)D over immobilized VDR; […] decrease, no Kd for PFOA
Type: binding

Structure (SMILES): O=C(O)C(F)(F)C(F)(F)C(F)(F)C(F)(F)C(F)(F)C(F)(F)C(F)(F)F [PFOA, perfluorooctanoic acid]
- % decrease: 10 % decrease
